Results on one compound are retold here after patent US20110281917A1, “Substituted Benzimidazoles for the Treatment of Astrocytomas” (priority 2009, published 2011).

For orientation: EC50 means the concentration giving half of the maximal effect.

Test [1] has as its system phospho-MEK. In words: phospho-MEK ELISA in ST88 cells. Format: cell-based. From the text:
(§1) Pathway inhibition and anti-proliferative activity of RAF265 in ST88 cells.

Test [2] has as its system ST88 cells. In words: Proliferation of ST88 cells. In kind it is cell-based.
Text: as §1

Test [3] concerns VEGF-CHO cells induced angiogenesis. In words: Matrigel plug angiogenesis model with VEGF-CHO cells, hemoglobin by Drabkin's reagent. In kind it is in vivo. As to conditions: mice, dosed days 1 and 4, plugs excised day 5. From the text: Due to the inhibition of VEGFR-2, RAF265 also has anti-angiogenic activity which may also provide a therapeutic benefit in treating neurofibromas. To confirm that RAF265 inhibits the growth of new blood vessels (i.e., angiogenesis) in vivo, mice were implanted with Matrigel® containing Chinese hamster ovary cells (CHO) overexpressing VEGF and then treated mice with a dose range of RAF265 or a vehicle control (days 1 and 4). In this model, VEGF expressed from the CHO cells induces angiogenesis within the Matrigel® plug. Plugs are excised on day 5 and assayed for hemoglobin using Drabkin's reagent, as a measure of the degree of angiogenesis.

The subject of test [4] is phospho-ERK. Description: phospho-ERK ELISA in ST88 cells. In kind it is cell-based.
Text: as §1
(In general: In an ELISA, binding on a coated surface is turned into a signal by an enzyme label.)

Each structure is given as a SMILES string.

With `Cn1c(Nc2ccc(C(F)(F)F)cc2)nc2cc(Oc3ccnc(-c4ncc(C(F)(F)F)[nH]4)c3)ccc21` [Compound of Example 1], the results for the EC50 in test [1], in test [2] and in test [4] were 0.15 µM, 0.207 µM and 0.185 µM, respectively. For the same compound, the “dose of maximal suppression of hemoglobin content” value in test [3] is recorded as 50 mg/kg. Besides, the “hemoglobin content of Matrigel plug” value in test [3] is “dose-dependent decrease in hemoglobin content”.
